This passage reports Ki results from patent publication US8846719B2, “Isoxazolo-pyridine derivatives” (Roche Palo Alto LLC, priority 2007, dated 2014).

The test deals with human GABA A receptor α5β3γ2 (Homo sapiens (Human), UniProt P18507+P31644). Put plainly: [3H]flumazenil competition binding assay, human GABA A α5β3γ2 receptors expressed in HEK293 cells. Particulars: human receptor; displacement of [3H]flumazenil (0.5 nM); means of two determinations; read-out: hKi GABAAa5. Put shortly:
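Ki values, each the mean of two runs, derive from displacement of [3H]flumazenil from human α5β3γ2 GABA A receptors transiently expressed in HEK293 membranes. Binding ran 1 h at 4° C in Krebs-tris, pH 7.5, before filter harvest and scintillation counting.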
On the technique in general: Loss of bound radioactivity is the signal in a displacement assay; it reports binding, not function.

SMILES strings stand for the structures.

As for `COC(=O)c1ccc(OCc2c(-c3ccc(F)cn3)noc2C)nc1` [Example 286, 6-[3-(5-Fluoro-pyridin-2-yl)-5-methyl-isoxazol-4-ylmethoxy]-nicotinic acid methyl ester], the Ki came to 2 nM.

On to `CNC(=O)c1ccc(OCc2c(-c3ccccc3)noc2C(F)(F)F)nc1` [Example 129, N-Methyl-6-(3-phenyl-5-trifluoromethyl-isoxazol-4-ylmethoxy)-nicotinamide], for which the Ki worked out at 24.3 nM. The same measure for `Cc1onc(-c2ccccc2)c1COc1cc(C(F)(F)F)c(C(=O)NC2CCOCC2)cn1` [Example 63, 6-(5-Methyl-3-phenyl-isoxazol-4-ylmethoxy)-N-(tetrahydro-pyran-4-yl)-4-trifluoromethyl-nicotinamide]: 10.7 nM. To `CC(=O)Nc1ccc(OCc2c(-c3ccccc3)noc2C)nc1` [Example 179, N-[6-(5-Methyl-3-phenyl-isoxazol-4-ylmethoxy)-pyridin-3-yl]-acetamide] belongs 9.4 nM; to `Cc1onc(-c2ccccc2)c1CNc1ccc(C(=O)NC2CCOCC2)cn1` [Example 166, 6-[(5-Methyl-3-phenyl-isoxazol-4-ylmethyl)-amino]-N-(tetrahydro-pyran-4-yl)-nicotinamide], 8.8 nM; to `CC(=O)NCCNC(=O)c1ccc(OCc2conc2-c2ccc(F)cc2)nc1` [Example 335, N-(2-Acetylamino-ethyl)-6-[3-(4-fluoro-phenyl)-isoxazol-4-ylmethoxy]-nicotinamide], 37.6 nM. The same measure for `Cc1onc(-c2ccccc2)c1COc1ncc(C(=O)NC2CCOCC2)cc1Br` [Example 65, 5-Bromo-6-(5-methyl-3-phenyl-isoxazol-4-ylmethoxy)-N-(tetrahydro-pyran-4-yl)-nicotinamide]: 24.4 nM; for `O=C(NC1CCOCC1)c1ccc(OCc2conc2-c2ccccn2)nc1` [Example 358, 6-(3-Pyridin-2-yl-isoxazol-4-ylmethoxy)-N-(tetrahydro-pyran-4-yl)-nicotinamide]: 17.8 nM.

Turning to `COC(=O)c1cnc(OCc2c(-c3ccccc3)noc2C)c(Br)c1` [Example 64, 5-Bromo-6-(5-methyl-3-phenyl-isoxazol-4-ylmethoxy)-nicotinic acid methyl ester], the Ki came to 34.4 nM. As to `CCOC(=O)C(C)NC(=O)c1ccc(OCc2c(-c3ccccc3)noc2C)nc1` (stereo not drawn) [Example 25, 2-{[6-(5-Methyl-3-phenyl-isoxazol-4-ylmethoxy)-pyridine-3-carbonyl]-amino}-propionic acid ethyl ester], the Ki amounted to 20.2 nM. The same measure for `Cc1onc(-c2ccccc2)c1COc1ccc(C(=O)Nc2ccc(F)cc2)cn1` [Example 49, N-(4-Fluoro-phenyl)-6-(5-methyl-3-phenyl-isoxazol-4-ylmethoxy)-nicotinamide]: 12.1 nM. With `Cc1onc(-c2ccccc2)c1CNc1ccc(C(=O)NCCN2CCCC2=O)cn1` [Example 163, 6-[(5-Methyl-3-phenyl-isoxazol-4-ylmethyl)-amino]-N-[2-(2-oxo-pyrrolidin-1-yl)-ethyl]-nicotinamide], the Ki was 37.3 nM.

For `Cc1nnc(-c2ccc(OCc3c(-c4ccccc4)noc3C)nc2)[nH]1` [Example 246, 2-(5-Methyl-3-phenyl-isoxazol-4-ylmethoxy)-5-(5-methyl-4H-[1,2,4]triazol-3-yl)-pyridine], the Ki turned out to be 1.1 nM. To `Cc1onc(-c2ccc(F)c(F)c2)c1COc1ccc(C(=O)NC(C)C)cn1` [Example 126, 6-[3-(3,4-Difluoro-phenyl)-5-methyl-isoxazol-4-ylmethoxy]-N-isopropyl-nicotinamide] belongs 4.7 nM; to `Cc1onc(-c2ccc(Cl)cn2)c1COc1ccc(C(=O)NCCO)cn1` [Example 311, 6-[3-(5-Chloro-pyridin-2-yl)-5-methyl-isoxazol-4-ylmethoxy]-(2-hydroxy-ethyl)-nicotinamide], 0.1 nM; to `Cc1onc(-c2ccc(Cl)cn2)c1COc1ccc(C(=O)O)cn1` [Example 304, 6-[3-(5-Chloro-pyridin-2-yl)-5-methyl-isoxazol-4-ylmethoxy]-nicotinic acid], 3.8 nM. To `Cc1onc(-c2ccccn2)c1COc1ccc(C(=O)NC(C)C)cn1` [Example 273, N-Isopropyl-6-(5-methyl-3-pyridin-2-yl-isoxazol-4-ylmethoxy)-nicotinamide] belongs 0.6 nM; to `Cc1onc(-c2ccccc2F)c1COc1ccc(C(=O)NCC(F)(F)F)cn1` [Example 84, 6-[3-(2-Fluoro-phenyl)-5-methyl-isoxazol-4-ylmethoxy]-N-(2,2,2-trifluoro-ethyl)-nicotinamide], 4.5 nM.

As for `CC(=O)NCCNC(=O)c1ccc(OCc2conc2-c2ccc(Cl)cc2)nc1` [Example 356, N-(2-Acetylamino-ethyl)-6-[3-(4-chloro-phenyl)-isoxazol-4-ylmethoxy]-nicotinamide], the Ki is 13.1 nM. To `Cc1onc(-c2ccc(Cl)cc2)c1COc1ccc(C(=O)N[C@@H]2CCC[C@H]2O)cn1` (single isomer, unassigned) [Example 259, 6-[3-(4-Chloro-phenyl)-5-methyl-isoxazol-4-ylmethoxy]-N-((1R,2R)-2-hydroxy-cyclopentyl)-nicotinamide or 6-[3-(4-chloro-phenyl)-5-methyl-isoxazol-4-ylmethoxy]-N-((1S,2S)-2-hydroxy-cyclopentyl)-nicotinamide] belongs 0.7 nM; to `Cc1onc(-c2cccc(F)c2)c1CNc1ccc(C(=O)NCC(F)(F)F)cn1` [Example 168, 6-{[3-(3-Fluoro-phenyl)-5-methyl-isoxazol-4-ylmethyl]-amino}-N-(2,2,2-trifluoro-ethyl)-nicotinamide], 17.8 nM; to `O=C(NCCO)c1ccc(OCc2c(-c3ccc(F)cc3)noc2C(F)(F)F)nc1` [Example 139, 6-[3-(4-Fluoro-phenyl)-5-trifluoromethyl-isoxazol-4-ylmethoxy]-N-(2-hydroxy-ethyl)-nicotinamide], 16.5 nM. To `C[C@H](CO)NC(=O)c1ccc(OCc2conc2-c2ccc(F)cc2)nc1` [Example 326, 6-[3-(4-Fluoro-phenyl)-isoxazol-4-ylmethoxy]-N—((R)-2-hydroxy-1-methyl-ethyl)-nicotinamide] belongs 27.7 nM. The same measure for `Cc1onc(-c2ccccc2)c1COc1ccc(C(=O)N[C@H](CO)C(C)C)cn1` [Example 206, N—((S)-1-Hydroxymethyl-2-methyl-propyl)-6-(5-methyl-3-phenyl-isoxazol-4-ylmethoxy)-nicotinamide]: 1.8 nM.

Regarding `Cc1onc(-c2ccc(F)cn2)c1COc1ccc(C(=O)O)cn1` [Example 287, 6-[3-(5-Fluoro-pyridin-2-yl)-5-methyl-isoxazol-4-ylmethoxy]-nicotinic acid], the Ki was determined as 19.2 nM. To `CCCCS(=O)(=O)NC(=O)c1ccc(OCc2c(-c3ccccc3)noc2C)nc1` [Example 233, Butane-1-sulfonic acid [6-(5-methyl-3-phenyl-isoxazol-4-ylmethoxy)-pyridine-3-carbonyl]-amide] belongs 32.2 nM. The same measure for `Cc1onc(-c2ccc(Cl)cc2)c1COc1ccc(C(=O)Nc2cnn(C)c2)cn1` [Example 255, 6-[3-(4-Chloro-phenyl)-5-methyl-isoxazol-4-ylmethoxy]-N-(1-methyl-1H-pyrazol-4-yl)-nicotinamide]: 0.8 nM.
